Data taken from ChEMBL document CHEMBL1153480, “Study on the potential anti-cancer activity of phosphonium and ammonium-based ionic liquids” (2009).

Assays:
Assay type in all cases: functional
UO-31 [1] = assay: Cytotoxicity against human UO31 cells by SRB assay; details: read-out: LC50 (the source's name)
SW-620 [2] = assay: cells; details: Homo sapiens
Description: Growth inhibition of human SW620 cells assessed as drug level required for 50% reduction in net protein increase by SRB assay relative to control

UACC-62 = assay: cells; details: Homo sapiens
Description: Growth inhibition of human UACC62 cells assessed as drug level required for 50% reduction in net protein increase by SRB assay relative to control

A498 = assay: cells; details: Homo sapiens
Description: Growth inhibition of human A498 cells assessed as drug level required for 50% reduction in net protein increase by SRB assay relative to control

KM12 = assay: cells; details: Homo sapiens
Description: Growth inhibition of human KM12 cells assessed as drug level required for 50% reduction in net protein increase by SRB assay relative to control

SK-MEL-28 [3] = assay: cells; details: Homo sapiens
Description: Growth inhibition of human SK-MEL-28 cells assessed as cell growth at 10 uM by SRB assay

HCT-15 [4] = assay: cells; details: Homo sapiens
Description: Growth inhibition of human HCT15 cells assessed as drug level required for 50% reduction in net protein increase by SRB assay relative to control

NCI-H226 [5] = assay: cells; details: Homo sapiens
Description: Growth inhibition of human NCI-H226 cells assessed as drug level required for 50% reduction in net protein increase by SRB assay relative to control

PC-3 = assay: cells; details: Homo sapiens
Description: Growth inhibition of human PC3 cells assessed as drug level required for 50% reduction in net protein increase by SRB assay relative to control

NCI-H522 = assay: cells; details: Homo sapiens
Description: Growth inhibition of human NCI-H522 cells assessed as cell growth at 10 uM by SRB assay

OVCAR-3 = assay: cells; details: Homo sapiens
Description: Growth inhibition of human OVCAR-3 cells assessed as drug level required for 50% reduction in net protein increase by SRB assay relative to control

MCF7 = assay: cells; details: Homo sapiens
Description: Growth inhibition of human MCF7 cells assessed as drug level required for 50% reduction in net protein increase by SRB assay relative to control

SF-295 = assay: cells; details: Homo sapiens
Description: Growth inhibition of human SF295 cells assessed as cell growth at 10 uM by SRB assay

[6] = Cytotoxicity against human CAKI cells by SRB assay; details: read-out: LC50 (the source's name)
OVCAR-8 = assay: cells; details: Homo sapiens
Description: Growth inhibition of human OVCAR8 cells assessed as cell growth at 10 uM by SRB assay

UO-31 [7] = assay: cells; details: Homo sapiens
Description: Growth inhibition of human UO31 cells assessed as drug level required for 50% reduction in net protein increase by SRB assay relative to control

K562 [8] = assay: Cytotoxicity against human K562 cells by SRB assay; details: read-out: LC50 (the source's name)
MOLT-4 = assay: cells; details: Homo sapiens
Description: Growth inhibition of human MOLT4 cells assessed as drug level required for 50% reduction in net protein increase by SRB assay relative to control

SK-MEL-28 [9] = assay: cells; details: Homo sapiens; remark: listed apart in the source
Description: Growth inhibition of human SK-MEL-28 cells assessed as drug level required for 50% reduction in net protein increase by SRB assay relative to control

HT-29 [10] = assay: cells; details: Homo sapiens
Description: Growth inhibition of human HT-29 cells assessed as cell growth at 10 uM by SRB assay

A549 = assay: Cytotoxicity against human A549 cells by SRB assay; details: read-out: LC50 (the source's name)
RXF 393 [11] = assay: cells; details: Homo sapiens
Description: Growth inhibition of human RFX393 cells assessed as cell growth at 10 uM by SRB assay

cells [12] = details: Homo sapiens, Hs-578T
Description: Growth inhibition of human Hs 578T cells assessed as drug level required for 50% reduction in net protein increase by SRB assay relative to control

cells [13] = details: Homo sapiens, CAKI
Description: Growth inhibition of human CAKI cells assessed as cell growth at 10 uM by SRB assay

HT-29 [14] = assay: Cytotoxicity against human HT-29 cells by SRB assay; details: read-out: LC50 (the source's name)
SR = assay: cells; details: Homo sapiens
Description: Growth inhibition of human SR cells assessed as cell growth at 10 uM by SRB assay

SNB-19 [15] = assay: Cytotoxicity against human SNB19 cells by SRB assay; details: read-out: LC50 (the source's name)
SK-MEL-2 [16] = assay: cells; details: Homo sapiens
Description: Growth inhibition of human SK-MEL-2 cells assessed as drug level required for 50% reduction in net protein increase by SRB assay relative to control

SNB-75 [17] = assay: Cytotoxicity against human SNB75 cells by SRB assay; details: read-out: LC50 (the source's name)
SF-268 = assay: cells; details: Homo sapiens
Description: Growth inhibition of human SF268 cells assessed as cell growth at 10 uM by SRB assay

SW-620 [18] = assay: cells; details: Homo sapiens; remark: listed apart in the source
Description: Growth inhibition of human SW620 cells assessed as cell growth at 10 uM by SRB assay

ACHN = assay: cells; details: Homo sapiens
Description: Growth inhibition of human ACHN cells assessed as cell growth at 10 uM by SRB assay

OVCAR-5 = assay: cells; details: Homo sapiens
Description: Growth inhibition of human OVCAR5 cells assessed as cell growth at 10 uM by SRB assay

T47D [19] = assay: cells; details: Homo sapiens
Description: Growth inhibition of human T47D cells assessed as cell growth at 10 uM by SRB assay

NCI-H322M [20] = assay: cells; details: Homo sapiens
Description: Growth inhibition of human NCI-H322M cells assessed as cell growth at 10 uM by SRB assay

U-251 = assay: cells; details: Homo sapiens
Description: Growth inhibition of human U251 cells assessed as cell growth at 10 uM by SRB assay

M14 = assay: cells; details: Homo sapiens
Description: Growth inhibition of human M14 cells assessed as drug level required for 50% reduction in net protein increase by SRB assay relative to control

SK-MEL-5 = assay: cells; details: Homo sapiens
Description: Growth inhibition of human SK-MEL-5 cells assessed as drug level required for 50% reduction in net protein increase by SRB assay relative to control

SNB-19 [21] = assay: cells; details: Homo sapiens
Description: Growth inhibition of human SNB19 cells assessed as cell growth at 10 uM by SRB assay

MDA-MB-231 = assay: cells; details: Homo sapiens
Description: Growth inhibition of human MDA-MB-231 cells assessed as drug level required for 50% reduction in net protein increase by SRB assay relative to control

SN12C = assay: cells; details: Homo sapiens
Description: Growth inhibition of human SN12C cells assessed as cell growth at 10 uM by SRB assay

NCI-H322M [22] = assay: cells; details: Homo sapiens; remark: listed apart in the source
Description: Growth inhibition of human NCI-H322M cells assessed as drug level required for 50% reduction in net protein increase by SRB assay relative to control

K562 [23] = assay: cells; details: Homo sapiens
Description: Growth inhibition of human K562 cells assessed as drug level required for 50% reduction in net protein increase by SRB assay relative to control

HOP-62 [24] = assay: cells; details: Homo sapiens
Description: Growth inhibition of human HOP62 cells assessed as cell growth at 10 uM by SRB assay

HCT-116 [25] = assay: cells; details: Homo sapiens
Description: Growth inhibition of human HCT116 cells assessed as drug level required for 50% reduction in net protein increase by SRB assay relative to control

HL-60(TB) [26] = assay: cells; details: Homo sapiens
Description: Growth inhibition of human HL-60(TB) cells assessed as cell growth at 10 uM by SRB assay

NCI-H460 [27] = assay: cells; details: Homo sapiens
Description: Growth inhibition of human NCI-H460 cells assessed as drug level required for 50% reduction in net protein increase by SRB assay relative to control

NCI-H23 [28] = assay: Cytotoxicity against human NCI-H23 cells by SRB assay; details: read-out: LC50 (the source's name)
NCI-H226 [29] = assay: cells; details: Homo sapiens; remark: listed apart in the source
Description: Growth inhibition of human NCI-H226 cells assessed as cell growth at 10 uM by SRB assay

NCI-H460 [30] = assay: Cytotoxicity against human NCI-H460 cells by SRB assay; details: read-out: LC50 (the source's name)
NCI-H23 [31] = assay: cells; details: Homo sapiens
Description: Growth inhibition of human NCI-H23 cells assessed as drug level required for 50% reduction in net protein increase by SRB assay relative to control

COLO 205 = assay: Cytotoxicity against human COLO205 cells by SRB assay; details: read-out: LC50 (the source's name)
TK-10 = assay: cells; details: Homo sapiens
Description: Growth inhibition of human TK10 cells assessed as drug level required for 50% reduction in net protein increase by SRB assay relative to control

T47D [32] = assay: cells; details: Homo sapiens; remark: listed apart in the source
Description: Growth inhibition of human T47D cells assessed as drug level required for 50% reduction in net protein increase by SRB assay relative to control

SNB-75 [33] = assay: cells; details: Homo sapiens
Description: Growth inhibition of human SNB75 cells assessed as cell growth at 10 uM by SRB assay

DU-145 = assay: cells; details: Homo sapiens
Description: Growth inhibition of human DU145 cells assessed as cell growth at 10 uM by SRB assay

MDA-MB-435 [34] = assay: cells; details: Homo sapiens
Description: Growth inhibition of human MDA-MB-435 cells assessed as cell growth at 10 uM by SRB assay

HOP-62 [35] = assay: Cytotoxicity against human HOP62 cells by SRB assay; details: read-out: LC50 (the source's name)
LOX IMVI = assay: cells; details: Homo sapiens
Description: Growth inhibition of human LOXIMVI cells assessed as cell growth at 10 uM by SRB assay

NCI/ADR-RES = assay: cells; details: Homo sapiens
Description: Growth inhibition of human NCI/ADR-RES cells assessed as cell growth at 10 uM by SRB assay

SK-MEL-28 [36] = assay: Cytotoxicity against human SK-MEL-28 cells by SRB assay; details: read-out: LC50 (the source's name)
cells [37] = details: Homo sapiens, CAKI; remark: listed apart in the source
Description: Growth inhibition of human CAKI cells assessed as drug level required for 50% reduction in net protein increase by SRB assay relative to control

OVCAR-4 = assay: cells; details: Homo sapiens
Description: Growth inhibition of human OVCAR4 cells assessed as cell growth at 10 uM by SRB assay

HT-29 [38] = assay: cells; details: Homo sapiens; remark: listed apart in the source
Description: Growth inhibition of human HT-29 cells assessed as drug level required for 50% reduction in net protein increase by SRB assay relative to control

UO-31 [39] = assay: cells; details: Homo sapiens; remark: listed apart in the source
Description: Growth inhibition of human UO31 cells assessed as cell growth at 10 uM by SRB assay

HL-60(TB) [40] = assay: cells; details: Homo sapiens; remark: listed apart in the source
Description: Growth inhibition of human HL-60(TB) cells assessed as drug level required for 50% reduction in net protein increase by SRB assay relative to control

HOP-92 = assay: cells; details: Homo sapiens
Description: Growth inhibition of human HOP92 cells assessed as cell growth at 10 uM by SRB assay

SK-MEL-2 [41] = assay: Cytotoxicity against human SK-MEL-2 cells by SRB assay; details: read-out: LC50 (the source's name)
MDA-MB-435 [42] = assay: Cytotoxicity against human MDA-MB-435 cells by SRB assay; details: read-out: LC50 (the source's name)
HCT-116 [43] = assay: Cytotoxicity against human HCT116 cells by SRB assay; details: read-out: LC50 (the source's name)
RXF 393 [44] = assay: cells; details: Homo sapiens; remark: listed apart in the source
Description: Growth inhibition of human RFX393 cells assessed as drug level required for 50% reduction in net protein increase by SRB assay relative to control

HCT-15 [45] = assay: cells; details: Homo sapiens; remark: listed apart in the source
Description: Growth inhibition of human HCT15 cells assessed as cell growth at 10 uM by SRB assay

SMILES: CCCCCCCC[N+](C)(CCCCCCCC)CCCCCCCC.O=S(=O)([N-]S(=O)(=O)C(F)(F)F)C(F)(F)F
- CC50 (UO-31 [1]): 5950 nM
- GI50 (SW-620 [2]): 378 nM
- GI50 (UACC-62): 335 nM
- GI50 (A498): 1820 nM
- GI50 (KM12): 310 nM
- growth at 10 µM (SK-MEL-28 [3]): -100%
- GI50 (HCT-15 [4]): 993 nM
- GI50 (NCI-H226 [5]): 478 nM
- GI50 (PC-3): 282 nM
- growth at 10 µM (NCI-H522): -99.9%
- GI50 (OVCAR-3): 315 nM
- GI50 (MCF7): 317 nM
- growth at 10 µM (SF-295): -94.8%
- CC50 [6]: 3280 nM
- growth at 10 µM (OVCAR-8): -100%
- GI50 (UO-31 [7]): 686 nM
- CC50 (K562 [8]): 4860 nM
- GI50 (MOLT-4): 324 nM
- GI50 (SK-MEL-28 [9]): 710 nM
- growth at 10 µM (HT-29 [10]): -100%
- CC50 (A549): 8580 nM
- growth at 10 µM (RXF 393 [11]): -100%
- GI50 (cells [12]): 417 nM
- growth at 10 µM (cells [13]): -98.6%
- CC50 (HT-29 [14]): 5170 nM
- growth at 10 µM (SR): 28.1%
- CC50 (SNB-19 [15]): 8250 nM
- GI50 (SK-MEL-2 [16]): 356 nM
- CC50 (SNB-75 [17]): 3770 nM
- growth at 10 µM (SF-268): -100%
- growth at 10 µM (SW-620 [18]): -100%
- growth at 10 µM (ACHN): -93.6%
- growth at 10 µM (OVCAR-5): -100%
- growth at 10 µM (T47D [19]): -73.3%
- growth at 10 µM (NCI-H322M [20]): -100%
- growth at 10 µM (U-251): -75%
- GI50 (M14): 453 nM
- GI50 (SK-MEL-5): 177 nM
- growth at 10 µM (SNB-19 [21]): -89.6%
- GI50 (MDA-MB-231): 345 nM
- growth at 10 µM (SN12C): -86.5%
- GI50 (NCI-H322M [22]): 1810 nM
- GI50 (K562 [23]): 186 nM
- growth at 10 µM (HOP-62 [24]): -92.2%
- GI50 (HCT-116 [25]): 319 nM
- growth at 10 µM (HL-60(TB) [26]): 32%
- GI50 (NCI-H460 [27]): 362 nM
- CC50 (NCI-H23 [28]): 6330 nM
- growth at 10 µM (NCI-H226 [29]): -86.2%
- CC50 (NCI-H460 [30]): 4100 nM
- GI50 (NCI-H23 [31]): 308 nM
- CC50 (COLO 205): > 100000 nM
- GI50 (TK-10): 503 nM
- GI50 (T47D [32]): 428 nM
- growth at 10 µM (SNB-75 [33]): -100%
- growth at 10 µM (DU-145): -100%
- growth at 10 µM (MDA-MB-435 [34]): -90.8%
- CC50 (HOP-62 [35]): 7770 nM
- growth at 10 µM (LOX IMVI): -74.7%
- growth at 10 µM (NCI/ADR-RES): -100%
- CC50 (SK-MEL-28 [36]): 7180 nM
- GI50 (cells [37]): 84 nM
- growth at 10 µM (OVCAR-4): -94.1%
- GI50 (HT-29 [38]): 305 nM
- growth at 10 µM (UO-31 [39]): -100%
- GI50 (HL-60(TB) [40]): 173 nM
- growth at 10 µM (HOP-92): -70%
- CC50 (SK-MEL-2 [41]): > 100000 nM
- CC50 (MDA-MB-435 [42]): 5700 nM
- CC50 (HCT-116 [43]): 9900 nM
- GI50 (RXF 393 [44]): 464 nM
- growth at 10 µM (HCT-15 [45]): -75%

SMILES: CCCCCCCCCCCCCCCCCCPCCCCCCCCCCCCCC (centres undefined) [MONO(OCTADECYL(TETRADECYL)PHOSPHONIUM) MONO(HEXAFLUOROPHOSPHATE(V)) MONO(TETRAFLUOROBORATE)]
- CC50 (UO-31 [1]): > 100000 nM
- GI50 (SW-620 [2]): 72 nM
- GI50 (UACC-62): 61 nM
- GI50 (A498): 472 nM
- GI50 (KM12): 59 nM
- growth at 10 µM (SK-MEL-28 [3]): -69.3%
- GI50 (HCT-15 [4]): 339 nM
- GI50 (NCI-H226 [5]): 189 nM
- GI50 (PC-3): 44 nM
- growth at 10 µM (NCI-H522): -50.9%
- GI50 (OVCAR-3): 118 nM
- GI50 (MCF7): 253 nM
- growth at 10 µM (SF-295): -50%
- CC50 [6]: > 100000 nM
- growth at 10 µM (OVCAR-8): -18.1%
- GI50 (UO-31 [7]): 398 nM
- CC50 (K562 [8]): > 100000 nM
- GI50 (MOLT-4): 90 nM
- GI50 (SK-MEL-28 [9]): 376 nM
- growth at 10 µM (HT-29 [10]): -45%
- CC50 (A549): > 100000 nM
- growth at 10 µM (RXF 393 [11]): -16.9%
- GI50 (cells [12]): 84 nM
- growth at 10 µM (cells [13]): -70.2%
- CC50 (HT-29 [14]): > 100000 nM
- growth at 10 µM (SR): 12.1%
- CC50 (SNB-19 [15]): > 100000 nM
- GI50 (SK-MEL-2 [16]): 81 nM
- CC50 (SNB-75 [17]): > 100000 nM
- growth at 10 µM (SF-268): -49%
- growth at 10 µM (SW-620 [18]): -43.8%
- growth at 10 µM (ACHN): -58.9%
- growth at 10 µM (OVCAR-5): -70%
- growth at 10 µM (T47D [19]): -38.5%
- growth at 10 µM (NCI-H322M [20]): -79.2%
- growth at 10 µM (U-251): -6.5%
- GI50 (M14): 87 nM
- GI50 (SK-MEL-5): 74 nM
- growth at 10 µM (SNB-19 [21]): -44.9%
- GI50 (MDA-MB-231): 107 nM
- growth at 10 µM (SN12C): -70.6%
- GI50 (NCI-H322M [22]): 401 nM
- GI50 (K562 [23]): 38 nM
- growth at 10 µM (HOP-62 [24]): -65.6%
- GI50 (HCT-116 [25]): 84 nM
- growth at 10 µM (HL-60(TB) [26]): 24.9%
- GI50 (NCI-H460 [27]): 346 nM
- CC50 (NCI-H23 [28]): > 100000 nM
- growth at 10 µM (NCI-H226 [29]): -68.1%
- CC50 (NCI-H460 [30]): > 100000 nM
- GI50 (NCI-H23 [31]): 236 nM
- CC50 (COLO 205): > 100000 nM
- GI50 (TK-10): 234 nM
- GI50 (T47D [32]): 89 nM
- growth at 10 µM (SNB-75 [33]): -85.2%
- growth at 10 µM (DU-145): -54.3%
- growth at 10 µM (MDA-MB-435 [34]): -59.3%
- CC50 (HOP-62 [35]): > 100000 nM
- growth at 10 µM (LOX IMVI): 0.43%
- growth at 10 µM (NCI/ADR-RES): -77.3%
- CC50 (SK-MEL-28 [36]): > 100000 nM
- GI50 (cells [37]): 350 nM
- growth at 10 µM (OVCAR-4): -71.3%
- GI50 (HT-29 [38]): 61 nM
- growth at 10 µM (UO-31 [39]): -44.8%
- GI50 (HL-60(TB) [40]): 39 nM
- growth at 10 µM (HOP-92): -55.5%
- CC50 (SK-MEL-2 [41]): > 100000 nM
- CC50 (MDA-MB-435 [42]): > 100000 nM
- CC50 (HCT-116 [43]): > 100000 nM
- GI50 (RXF 393 [44]): 352 nM
- growth at 10 µM (HCT-15 [45]): -35.8%
